Assay: Compound was tested for inhibition of Angiotensin II receptor in rabbit aorta binding assay

Point of comparison: `CCc1nc2c(C)cc(C)nc2n1Cc1ccc(-c2ccsc2-c2nn[nH]n2)cc1`, IC50 2.3 nM. Against it:
- CCc1nc2c(C)cc(C)nc2n1Cc1ccc(-c2ccccc2-c2nn[nH]n2)s1 — 430-fold higher, 1000 nM
- CCc1nc2c(C)cc(C)nc2n1Cc1ccc(-c2ccoc2-c2nn[nH]n2)cc1 — 10-fold higher, 23 nM
- CCc1nc2c(C)cc(C)nc2n1Cc1ccc(-c2cscc2-c2nn[nH]n2)cc1 — within 1.5-fold, 2.4 nM
